For this experiment, the system named is male C57BL/6J mouse. Put plainly: 2-days continuous subcutaneous administration test (feeding suppressive activity). It counts as in vivo. The conditions noted are these: 10 nmol/kg/day, subcutaneous Alzet pump, 2-days cumulative food consumption, control (solvent alone) = 0%. The protocol:
2-Days Continuous Subcutaneous Administration Test
The feeding suppressive activity of a test compound was examined by the method described below.
The test compound was dissolved in a solvent (50% DMSO) so that sustained release would occur at 10 nmol/kg/day, and the solution was filled in the Alzet Pump (DURECT Corporation, model: 1003D). The pump thus filled with the solution to be administered was immersed in physiological saline for priming, and then used. The pump was embedded by the following method. Each male C57BL/6J mouse at 8-9 weeks of age (20-26° C., allowed to take food and water ad libitum; 12-hour bright-12-hour dark cycle) was anesthetized; the skin in the upper back thereof was incised, and the above-mentioned pump was embedded subcutaneously; the incision was sutured. After weighing, this mouse was returned to the rearing cage (reared alone), and given previously weighed food; food consumption as of 2 days after the start of administration was measured. The food consumption was calculated by subtracting the amount of remaining food from the weight of the food given on the day of the start of administration. When the food consumption of a control group receiving administration of the solvent alone was regarded as a suppression rate of 0%, the feeding suppressive activity of each test compound was evaluated on the basis of 2-days cumulative food consumption after the start of administration. The food intake suppression rate (%) of the test compound was defined as (Food consumption of the control group−Food consumption of the test compound-administered group)/Food consumption of the control group×100.

Square brackets hold non-standard residues; d marks the D form. Peptide text beside a SMILES is read from it. αMeF = C[C@](N)(Cc1ccccc1)C(=O)O; 4Pal = N[C@@H](Cc1ccncc1)C(=O)O; Cha = N[C@@H](CC1CCCCC1)C(=O)O; Aib = CC(C)(N)C(=O)O

With `CC(C)C[C@H](NC(=O)[C@H](CC(C)C)NC(=O)[C@H](Cc1c[nH]c2ccccc12)NC(=O)[C@H](CCCCN)NC(=O)[C@@H](NC(=O)[C@H](Cc1ccccc1)NC(=O)[C@H](CCC(=O)O)NC(=O)[C@H](C)NC(=O)[C@H](CCC(N)=O)NC(=O)[C@H](C)NC(=O)[C@H](CCC(N)=O)NC(=O)[C@H](CCCCN)NC(=O)[C@H](CC(=O)O)NC(=O)[C@H](CC(C)C)NC(=O)C(C)(C)NC(=O)[C@H](CCCCN)NC(=O)C(C)(C)NC(=O)[C@H](Cc1ccc(O)cc1)NC(=O)[C@H](CC(=O)O)NC(=O)[C@H](CO)NC(=O)[C@@H](NC(=O)[C@](C)(Cc1ccccc1)NC(=O)[C@@H](NC(=O)CNC(=O)[C@H](CCC(=O)O)NC(=O)C(C)(C)NC(=O)[C@@H](N)Cc1ccc(O)cc1)[C@@H](C)O)[C@@H](C)O)C(C)C)C(=O)N[C@@H](CCCCN)C(=O)NCC(=O)NCC(=O)N1CCC[C@H]1C(=O)N[C@@H](CO)C(=O)N[C@@H](CO)C(=O)NCC(=O)N[C@@H](C)C(=O)N1CCC[C@H]1C(=O)N1CCC[C@H]1C(=O)N1CCC[C@H]1C(=O)N[C@@H](CO)C(=O)N[C@@H](CCCCN)C(N)=O` [Example 9] (H-Y[Aib]EGT[αMeF]TSDY[Aib]K[Aib]LDKQAQAEFVKWLLKGGPSSGAPPPSK-NH2), the “Food intake suppression (%)” value is 45.23%. For `CC(C)C[C@H](NC(=O)[C@H](CC(C)C)NC(=O)[C@H](Cc1c[nH]c2ccccc12)NC(=O)[C@H](CCCCN)NC(=O)[C@@H](NC(=O)[C@H](Cc1ccccc1)NC(=O)[C@H](CCC(=O)O)NC(=O)[C@H](C)NC(=O)[C@H](CCC(N)=O)NC(=O)[C@H](C)NC(=O)[C@H](CCC(N)=O)NC(=O)[C@H](CCCCN)NC(=O)[C@H](CC(=O)O)NC(=O)[C@H](CC(C)C)NC(=O)C(C)(C)NC(=O)[C@H](C)NC(=O)C(C)(C)NC(=O)[C@H](Cc1ccc(O)cc1)NC(=O)[C@H](CC(=O)O)NC(=O)[C@H](CO)NC(=O)[C@@H](NC(=O)[C@](C)(Cc1ccccc1)NC(=O)[C@@H](NC(=O)CNC(=O)[C@H](CCC(=O)O)NC(=O)C(C)(C)NC(=O)[C@@H](N)Cc1ccc(O)cc1)[C@@H](C)O)[C@@H](C)O)C(C)C)C(=O)N[C@@H](CCCCN)C(=O)NCC(=O)NCC(=O)N1CCC[C@H]1C(=O)N[C@@H](CO)C(=O)N[C@@H](CO)C(=O)NCC(=O)N[C@@H](C)C(=O)N1CCC[C@H]1C(=O)N1CCC[C@H]1C(=O)N1CCC[C@H]1C(=O)N[C@@H](CO)C(=O)N[C@@H](CCCCN)C(N)=O` [Example 10] (H-Y[Aib]EGT[αMeF]TSDY[Aib]A[Aib]LDKQAQAEFVKWLLKGGPSSGAPPPSK-NH2), the “Food intake suppression (%)” value came out at 62.04%.

Turning to `CC(C)C[C@H](NC(=O)[C@H](CC(C)C)NC(=O)[C@H](Cc1c[nH]c2ccccc12)NC(=O)[C@H](CCCCN)NC(=O)[C@@H](NC(=O)[C@H](Cc1ccccc1)NC(=O)[C@H](CCC(=O)O)NC(=O)[C@H](C)NC(=O)[C@H](CCC(N)=O)NC(=O)[C@H](C)NC(=O)[C@H](CCC(N)=O)NC(=O)[C@H](CCCCN)NC(=O)[C@H](CC(=O)O)NC(=O)[C@H](CC(C)C)NC(=O)C(C)(C)NC(=O)[C@H](Cc1ccccc1)NC(=O)C(C)(C)NC(=O)[C@H](Cc1ccc(O)cc1)NC(=O)[C@H](CC(=O)O)NC(=O)[C@H](CO)NC(=O)[C@@H](NC(=O)[C@](C)(Cc1ccccc1)NC(=O)[C@@H](NC(=O)CNC(=O)[C@H](CCC(=O)O)NC(=O)C(C)(C)NC(=O)[C@@H](N)Cc1ccc(O)cc1)[C@@H](C)O)[C@@H](C)O)C(C)C)C(=O)N[C@@H](CCCCN)C(=O)NCC(=O)NCC(=O)N1CCC[C@H]1C(=O)N[C@@H](CO)C(=O)N[C@@H](CO)C(=O)NCC(=O)N[C@@H](C)C(=O)N1CCC[C@H]1C(=O)N1CCC[C@H]1C(=O)N1CCC[C@H]1C(=O)N[C@@H](CO)C(=O)N[C@@H](CCCCN)C(N)=O` [Example 11] (H-Y[Aib]EGT[αMeF]TSDY[Aib]F[Aib]LDKQAQAEFVKWLLKGGPSSGAPPPSK-NH2), the “Food intake suppression (%)” value was 49.99%.

As to `CC(C)C[C@H](NC(=O)[C@H](CC(C)C)NC(=O)[C@H](Cc1c[nH]c2ccccc12)NC(=O)[C@H](CCCCN)NC(=O)[C@@H](NC(=O)[C@H](Cc1ccccc1)NC(=O)[C@H](CCC(=O)O)NC(=O)[C@H](C)NC(=O)[C@H](CCC(N)=O)NC(=O)[C@H](C)NC(=O)[C@H](CCC(N)=O)NC(=O)[C@H](CCCCN)NC(=O)[C@H](CC(=O)O)NC(=O)[C@H](CC(C)C)NC(=O)C(C)(C)NC(=O)[C@H](Cc1ccncc1)NC(=O)C(C)(C)NC(=O)[C@H](Cc1ccc(O)cc1)NC(=O)[C@H](CC(=O)O)NC(=O)[C@H](CO)NC(=O)[C@@H](NC(=O)[C@](C)(Cc1ccccc1)NC(=O)[C@@H](NC(=O)CNC(=O)[C@H](CCC(=O)O)NC(=O)C(C)(C)NC(=O)[C@@H](N)Cc1ccc(O)cc1)[C@@H](C)O)[C@@H](C)O)C(C)C)C(=O)N[C@@H](CCCCN)C(=O)NCC(=O)NCC(=O)N1CCC[C@H]1C(=O)N[C@@H](CO)C(=O)N[C@@H](CO)C(=O)NCC(=O)N[C@@H](C)C(=O)N1CCC[C@H]1C(=O)N1CCC[C@H]1C(=O)N1CCC[C@H]1C(=O)N[C@@H](CO)C(=O)N[C@@H](CCCCN)C(N)=O` [Example 12] (H-Y[Aib]EGT[αMeF]TSDY[Aib][4Pal][Aib]LDKQAQAEFVKWLLKGGPSSGAPPPSK-NH2), the “Food intake suppression (%)” value is given as 55.07%. The value for `CC[C@H](C)[C@H](NC(=O)C(C)(C)NC(=O)[C@H](Cc1ccc(O)cc1)NC(=O)[C@H](CC(=O)O)NC(=O)[C@H](CO)NC(=O)[C@@H](NC(=O)[C@](C)(Cc1ccccc1)NC(=O)[C@@H](NC(=O)CNC(=O)[C@H](CCC(=O)O)NC(=O)C(C)(C)NC(=O)[C@@H](N)Cc1ccc(O)cc1)[C@@H](C)O)[C@@H](C)O)C(=O)N[C@@](C)(Cc1ccccc1)C(=O)N[C@@H](CC(C)C)C(=O)N[C@@H](CC(=O)O)C(=O)N[C@@H](CCCCN)C(=O)N[C@@H](CCC(N)=O)C(=O)N[C@@H](C)C(=O)N[C@@H](CCC(N)=O)C(=O)N[C@@H](C)C(=O)N[C@@H](CCC(=O)O)C(=O)N[C@@H](Cc1ccccc1)C(=O)N[C@H](C(=O)N[C@@H](CCCCN)C(=O)N[C@@H](Cc1c[nH]c2ccccc12)C(=O)N[C@@H](CC(C)C)C(=O)N[C@@H](CC(C)C)C(=O)N[C@@H](CCCCN)C(=O)NCC(=O)NCC(=O)N1CCC[C@H]1C(=O)N[C@@H](CO)C(=O)N[C@@H](CO)C(=O)NCC(=O)N[C@@H](C)C(=O)N1CCC[C@H]1C(=O)N1CCC[C@H]1C(=O)N1CCC[C@H]1C(=O)N[C@@H](CO)C(=O)N[C@@H](CCCCN)C(N)=O)C(C)C` [Example 13] (H-Y[Aib]EGT[αMeF]TSDY[Aib]I[αMeF]LDKQAQAEFVKWLLKGGPSSGAPPPSK-NH2) was 57.12%; that for `CC[C@H](C)[C@H](NC(=O)C(C)(C)NC(=O)[C@H](Cc1ccc(O)cc1)NC(=O)[C@H](CC(=O)O)NC(=O)[C@H](CO)NC(=O)[C@@H](NC(=O)[C@](C)(Cc1ccccc1)NC(=O)[C@@H](NC(=O)CNC(=O)[C@H](CCC(=O)O)NC(=O)C(C)(C)NC(=O)[C@@H](N)Cc1ccc(O)cc1)[C@@H](C)O)[C@@H](C)O)C(=O)N[C@@H](CC1CCCCC1)C(=O)N[C@@H](CC(C)C)C(=O)N[C@@H](CC(=O)O)C(=O)N[C@@H](CCCCN)C(=O)N[C@@H](CCC(N)=O)C(=O)N[C@@H](C)C(=O)N[C@@H](CCC(N)=O)C(=O)N[C@@H](C)C(=O)N[C@@H](CCC(=O)O)C(=O)N[C@@H](Cc1ccccc1)C(=O)N[C@H](C(=O)N[C@@H](CCCCN)C(=O)N[C@@H](Cc1c[nH]c2ccccc12)C(=O)N[C@@H](CC(C)C)C(=O)N[C@@H](CC(C)C)C(=O)N[C@@H](CCCCN)C(=O)NCC(=O)NCC(=O)N1CCC[C@H]1C(=O)N[C@@H](CO)C(=O)N[C@@H](CO)C(=O)NCC(=O)N[C@@H](C)C(=O)N1CCC[C@H]1C(=O)N1CCC[C@H]1C(=O)N1CCC[C@H]1C(=O)N[C@@H](CO)C(=O)N[C@@H](CCCCN)C(N)=O)C(C)C` [Example 14] (H-Y[Aib]EGT[αMeF]TSDY[Aib]I[Cha]LDKQAQAEFVKWLLKGGPSSGAPPPSK-NH2) was 47.47%; that for `CC(C)C[C@H](NC(=O)[C@H](CC(C)C)NC(=O)[C@H](Cc1c[nH]c2ccccc12)NC(=O)[C@H](CCCCN)NC(=O)[C@@H](NC(=O)[C@H](Cc1ccccc1)NC(=O)[C@H](CCC(=O)O)NC(=O)[C@H](C)NC(=O)[C@H](CCC(N)=O)NC(=O)[C@H](C)NC(=O)[C@H](CCC(N)=O)NC(=O)[C@H](CCCCN)NC(=O)[C@H](CC(=O)O)NC(=O)[C@H](CC(C)C)NC(=O)[C@](C)(Cc1ccccc1)NC(=O)[C@H](CCCCN)NC(=O)C(C)(C)NC(=O)[C@H](Cc1ccc(O)cc1)NC(=O)[C@H](CC(=O)O)NC(=O)[C@H](CO)NC(=O)[C@@H](NC(=O)[C@](C)(Cc1ccccc1)NC(=O)[C@@H](NC(=O)CNC(=O)[C@H](CCC(=O)O)NC(=O)C(C)(C)NC(=O)[C@@H](N)Cc1ccc(O)cc1)[C@@H](C)O)[C@@H](C)O)C(C)C)C(=O)N[C@@H](CCCCN)C(=O)NCC(=O)NCC(=O)N1CCC[C@H]1C(=O)N[C@@H](CO)C(=O)N[C@@H](CO)C(=O)NCC(=O)N[C@@H](C)C(=O)N1CCC[C@H]1C(=O)N1CCC[C@H]1C(=O)N1CCC[C@H]1C(=O)N[C@@H](CO)C(=O)N[C@@H](CCCCN)C(N)=O` [Example 15] (H-Y[Aib]EGT[αMeF]TSDY[Aib]K[αMeF]LDKQAQAEFVKWLLKGGPSSGAPPPSK-NH2) was 58.80%.
